Data taken from patent publication US9108933B2, “Method for treating proliferative disorders associated with mutations in c-Met” (Synta Pharmaceuticals Corp., priority 2007, dated 2015).
Entries after “also recorded” stand apart in the source; their conditions may differ.

Experiments:
[1] = test system: mutant c-Met (T1010I) on ACHN human renal cell carcinoma cells; experiment: Flow cytometric analysis of c-Met on the surface of ACHN cells; format: cell-based; conditions: 18 hours, read-out: IC50 for degradation of mutant c-Met
Experimental: (§1) Flow cytometric analysis was used to monitor the degradation of c-Met over-expressed on the surface of the ACHN human renal cell carcinoma cell line which contains the juxtamembrane domain mutation (C3223T: T1010I) and is constitutively active, and the MKN45 which is a c-Met amplified human gastric carcinoma cell line. ACHN and MKN45 cells (5×10^5 cells) were treated with Compound 226, 17-AAG or 17-DMAG for 18 hours. After treatment the cells were stained with FITC conjugated c-MET antibody. The expression of the c-Met cell surface proteins was measured by flow cytometry analysis (see FIG. 4 for ACHN cells and FIG. 5 for MKN45 cells). The IC50 value was determined by XLfit software.

[2] = test system: MNK45 cell line, c-Met amplified human gastric carcinoma; experiment: Cell survival of MKN45 cells (Cell Counting Kit-8); format: cell-based; conditions: 72 hours
Experimental: MNK45 cell line, (DSMZ #ACC 409), which is a c-Met amplified human gastric carcinoma cell line, was obtained from the Deutsche Sammlung von Mikroorganismen and Zellkulturen GmbH (DSMZ; Braunschweig, Germany). […] MNK45 cells (20,000 cells/well) were cultured in 96-well plates and maintained at 37° C. for several hours. The cells were incubated at 37° C. for 72 hours with various concentrations of compound 226 of the invention, 17AAG, or DMAG. 17AAG and 17DMAG are Hsp90 inhibitors that are currently in clinical trials and are used here as positive controls for Hsp90 inhibition. Cell survival was measured with Cell Counting Kit-8 (Dojindo Laboratories, Cat # CK04).

[3] = test system: c-Met on MKN45 c-Met amplified human gastric carcinoma cells; experiment: Flow cytometric analysis of c-Met on the surface of MKN45 cells; format: cell-based; conditions: MKN-45 cell line, 18 hours; read-out: IC50 for degradation of c-Met
Experimental: as §1

[4] = test system: Hsp90 protein; experiment: Malachite Green assay of ATPase activity of Hsp90 protein; format: biochemical; conditions: 37° C., 4 hours
Experimental: Hsp90 protein was obtained from Stressgen (Cat#SPP-770). Assay buffer: 100 mM Tris-HCl, Ph7.4, 20 mM KCl, 6 mM MgCl2. […] Malachite green reagent was added to the reaction. […] The plate was read by an ELISA reader with an absorbance at 620 nm.

[5] = test system: Her2; experiment: Degradation of Her2 in BT-474 cells, Western blot (Method 1); format: cell-based, human; conditions: overnight
Experimental: Human high-Her2 breast carcinoma BT474 (HTB-20), SK-BR-3 (HTB-30) and MCF-7 breast carcinoma (HTB-22) from American Type Culture Collection, VA, USA were grown in Dulbecco's modified Eagle's medium with 4 mM L-glutamine and antibiotics (100 IU/ml penicillin and 100 ug/ml streptomycine; GibcoBRL). To obtain exponential cell growth, cells were trypsinized, counted and seeded at a cell density of 0.5×10^6 cells/ml regularly, every 3 days. All experiments were performed on day 1 after cell passage.
After treatment, each cytoplasmic sample was prepared from 1×10^6 cells by incubation of cell lysis buffer (#9803, cell Signaling Technology) on ice for 10 minutes. The resulting supernatant used as the cytosol fractions were dissolved with sample buffer for SDS-PAGE and run on a SDS-PAGE gel, blotted onto a nitrocellulose membrane by using semi-dry transfer. Non-specific binding to nitrocellulose was blocked with 5% skim milk in TBS with 0.5% Tween at room temperature for 1 hour, then probed with anti-Her2/ErB2 mAb (rabbit IgG, #2242, Cell Signaling) and anti-Tubulin (T9026, Sigma) as housekeeping control protein. HRP-conjugated goat antirabbit IgG (H+L) and HRP-conjugated horse anti-mouse IgG (H+L) were used as secondary Ab (#7074, #7076, Cell Signaling) and LumiGLO reagent, 20× Peroxide (#7003, Cell Signaling) was used for visualization.

[6] = test system: human c-MET amplified gastric carcinoma tumor cell line MKN-45; experiment: MKN-45 nude mouse xenograft model; format: in vivo; conditions: 50 mg/kg body weight, i.v., 3 times per week, 9 doses
Experimental: The human gastric carcinoma cell line, MKN-45 (DSMZ #ACC 409), was obtained from the Deutsche Sammlung von Mikroorganismen and Zellkulturen GmbH (DSMZ; Braunschweig, Germany). […] FBS was obtained from ATCC and all other reagents were obtained from Invitrogen Corp. (Carlsbad, Calif., USA). Cells that had been cryopreserved in liquid nitrogen were rapidly thawed at 37° C. and transferred to a tissue culture flask containing growth media and then incubated at 37° C. in a 5% CO2 incubator. To expand the cell line, growth media was replaced every 2-3 days until the flask became 90% confluent, typically in 5-10 days. Cultures were passaged by washing with 10 mL of room temperature phosphate buffered saline (PBS) and then disassociating cells by adding 5 mL 1× trypsin-EDTA and incubating at 37° C. until the cells detached from the surface of the flask. To inactivate the trypsin, 5 mL of growth media was added and then the contents of the flask were centrifuged to pellet the cells. The supernatant was aspirated and the cell pellet was resuspended in 10 mL of growth media and the cell number determined using a hemocytometer. Approximately 3-6×10(6) cells per flask were seeded into 175 cm^2 flasks containing 50 mL of growth media and incubated at 37° C. in a 5% CO2 incubator. […]
Tumors were then permitted to develop in vivo until the majority reached 100-200 mm^3 in tumor volume, which required ˜2 weeks following implantation. […] Tumor volumes (V) were calculated by caliper measurement of the width (W), length (L) and thickness (T) of tumors using the following formula: V=0.5236×(L×W×T). Animals were randomized into treatment groups so that the average tumor volumes of each group were similar at the start of dosing. % T/C values, as a measure of efficacy, were determined as follows: • (i) If ΔT>0: % T/C=(ΔT/ΔC)×100 • (ii) If ΔT<0: % T/C=(ΔT/T0)×100 • (iii) ΔT=Change in average tumor volume between start of dosing and the end of study. • (iv) ΔC=Change in average tumor volume between start of dosing and the end of study. • (v) T0=Average tumor volume at start of dosing. […]

[7] = test system: human tumor cell line MDA-MB-435S; experiment: MDA-MB-435S nude mouse xenograft model; format: in vivo; conditions: 300 mg/kg body weight, IP, 5 days per week for 3 weeks
Experimental: FBS was obtained from Sigma-Aldrich Corp. (St. Louis, Mo., USA), and all other reagents were obtained from Invitrogen Corp. (Carlsbad, Calif., USA). Approximately 4-5×10(6) cells that had been cryopreserved in liquid nitrogen were rapidly thawed at 37° C. and transferred to a 175 cm^2 tissue culture flask containing 50 ml of growth media and then incubated at 37° C. in a 5% CO2 incubator. The growth media was replaced every 2-3 days until the flask became 90% confluent, typically in 5-7 days. To passage and expand the cell line, a 90% confluent flask was washed with 10 ml of room temperature phosphate buffered saline (PBS) and the cells were disassociated by adding 5 ml 1× Trypsin-EDTA (Invitrogen) and incubating at 37° C. until the cells detached from the surface of the flask. […] The supernatant was aspirated and the cell pellet was resuspended in 10 ml of growth media and the cell number determined using a hemocytometer. […]
Six to eight week old, female Crl:CD-1-nuBR (nude) mice were obtained from Charles River Laboratories (Wilmington, Mass., USA). […] Tumor volumes (V) were calculated by caliper measurement of the width (W), length (L) and thickness (T) of tumors using the following formula: V=[…]×(L×W×T) Animals were randomized into treatment groups so that the average tumor volumes of each group were similar at the start of dosing. […]

CO[C@H]1/C=C\C=C(/C)C(=O)NC2=CC(=O)C(NCCN(C)C)=C(C[C@@H](C)C[C@H](OC)[C@H](O)[C@@H](C)/C=C(\C)[C@@H]1OC(N)=O)C2=O [Compound 17-DMAG]
IC50 [1]: 0.095 µM | IC50 [2]: 0.014 µM | IC50 [3]: 0.07 µM

C=CCNC1=C2C[C@@H](C)C[C@H](OC)[C@H](O)[C@@H](C)/C=C(\C)[C@H](OC(N)=O)[C@@H](OC)/C=C\C=C(/C)C(=O)NC(=CC1=O)C2=O [Compound 17-AAG]
IC50 [1]: 0.244 µM | IC50 [3]: 0.202 µM

Oc1ccc(-c2nnc(S)n2-c2cccc3ccccc23)c(O)c1 [Compound 108, 3-(2,4-Dihydroxy-3-phenyl)-4-(naphthalen-1-yl)-5-mercapto-triazole]
inhibition of ATPase activity of Hsp90 ([4]; 4 μM): significant inhibition | inhibition of ATPase activity of Hsp90 ([4]; 40 μM): even greater inhibition of ATPase activity of Hsp90 than geldanamycin | degradation of Her2 ([5]; 0.5 μM): partially degradated | degradation of Her2 ([5]; 2 μM): partially degradated | degradation of Her2 ([5]; 5 μM): almost completely degraded

CC(C)c1cc(-c2nnc(O)n2-c2ccc3c(ccn3C)c2)c(O)cc1O [Compound 226, 3-(2,4-dihydroxy-5-isopropyl-phenyl)-4-(1-methyl-indol-5-yl)-5-hydroxy-[1,2,4] triazole]
toxicity [6]: not associated with excessive toxicity; also recorded: Overt toxicity was not observed | % T/C value ([6]; day 36): 8% | average bodyweight loss relative to the start of the study ([6]; day 36): −3.5% | IC50 [1]: 0.018 µM | IC50 ([2]; Homo sapiens): 0.008 µM | IC50 [3]: 0.026 µM

CCc1cc(-c2nnc(S)n2-c2cccc3ccccc23)c(O)cc1O [Compound 49, 3-(2,4-Dihydroxy-5-ethyl-phenyl)-4-(naphthalen-1-yl)-5-mercapto-triazole]
toxicity (effect on body weights) [7]: not associated with significant toxicity

C=CCNC1=C2C[C@@H](C)C[C@H](OC)[C@H](O)[C@@H](C)/C=C(\C)[C@H](OC(N)=O)[C@@H](OC)/C=C\C=C(/C)C(=O)NC(=CC1=O)C2=O [Compound 17AAG]
IC50 [2]: 0.045 µM
